Source: US7550485B2, “Substituted N-heterocycle derivatives and methods of their use” (Wyeth, priority 2003, dated 2009)
Where a name gives a salt, the structure may show the parent alone.

Molecular target: T1, hNET (Homo sapiens, UniProt P23975)
T1 construct: expressed in transfected cells
Experiment: Norepinephrine (NE) uptake assay in MDCK-Net6 cells stably transfected with human hNET
Format: cell-based
Conditions: [3H]NE uptake; for inhibition at 1 µM: MDCK-Net6, 1 μM test compound; for EC50: test range 1 to 10,000 nM
Procedure: MDCK-Net6 cells, stably transfected with human hNET (Pacholczyk, T., R. D. Blakely, and S. G. Amara, Nature, 1991, 350(6316): p. 350-4) were cultured in growth medium containing high glucose DMEM (Gibco, Cat. No. 11995), 10% FBS (dialyzed, heat-inactivated, US Bio-Technologies, Lot FBD1129HI) and 500 μg/ml G418 (Gibco, Cat. No. 10131). Cells were plated at 300,000/T75 flask and cells were split twice weekly. The JAR cell line (human placental choriocarcinoma) was purchased from ATCC (Cat. No. HTB-144). The cells were cultured in growth medium containing RPMI 1640 (Gibco, Cat. No. 72400), 10% FBS (Irvine, Cat. No. 3000), 1% sodium pyruvate (Gibco, Cat. No. 1136) and 0.25% glucose. Cells were plated at 250,000 cells/T75 flask and split twice weekly. For all assays, cells were plated in Wallac 96-well sterile plates (PerkinElmer, Cat. No. 3983498).
Norepinephrine (NE) Uptake Assay
On day 1, cells were plated at 3,000 cells/well in growth medium and maintained in a cell incubator (37° C., 5% CO2). On day 2, growth medium was replaced with 200 μl of assay buffer (25 mM HEPES; 120 mM NaCl; 5 mM KCl; 2.5 mM CaCl2; 1.2 mM MgSO4; 2 mg/ml glucose (pH 7.4, 37° C.)) containing 0.2 mg/ml ascorbic acid and 10 μM pargyline. Plates containing cells with […] of assay buffer were equilibrated for 10 minutes at 37° C. prior to addition of compounds. A stock solution of desipramine was prepared in DMSO (10 mM) and delivered to triplicate wells containing cells for a final test concentration of 1 μM. Data from these wells were used to define non-specific NE uptake (minimum NE uptake). Test compounds were prepared in DMSO (10 mM) and diluted in assay buffer according to test range (1 to 10,000 nM). Twenty-five microliters of assay buffer (maximum NE uptake) or test compound were added directly to triplicate wells containing cells in 200 μl of assay buffer. The cells in assay buffer with test compounds were incubated for 20 minutes at 37° C. To initiate the NE uptake, [^3H]NE diluted in assay buffer (120 nM final assay concentration) was delivered in 25 μl aliquots to each well and the plates were incubated for 5 minutes (37° C.). The reaction was terminated by decanting the supernatant from the plate. The plates containing cells were washed twice with 200 μl assay buffer (37° C.) to remove free radioligand. The plates were then inverted, left to dry for 2 minutes, then reinverted and air-dried for an additional 10 minutes. The cells were lysed in 25 μl of 0.25 N NaOH solution (4° C.), placed on a shake table and vigorously shaken for 5 minutes. After cell lysis, 75 μl of scintillation cocktail was added to each well and the plates were sealed with film tape. The plates were returned to the shake table and vigorously shaken for a minimum of 10 minutes to ensure adequate partitioning of organic and aqueous solutions. The plates were counted in a Wallac Microbeta counter (PerkinElmer) to collect the raw cpm data.
For each experiment, a data stream of cpm values collected from the Wallac Microbeta counter was downloaded to a Microsoft Excel statistical application program. Calculations of EC50 values were made using the transformed-both-sides logistic dose response program written by Wyeth Biometrics Department. The statistical program uses mean cpm values from wells representing maximum binding or uptake (assay buffer) and mean cpm values from wells representing minimum binding or uptake ((1 μM desipramine (hNET) or 1 μM paroxetine (hSERT)). Estimation of the EC50 value was completed on a log scale and the line was fit between the maximum and minimum binding or uptake values. All graphic data representation was generated by normalizing each data point to a mean percent based on the maximum and minimum binding or uptake values. The EC50 values reported from multiple experiments were calculated by pooling the raw data from each experiment and analyzing the pooled data as one experiment.

T1 sequence (P23975 whole entry): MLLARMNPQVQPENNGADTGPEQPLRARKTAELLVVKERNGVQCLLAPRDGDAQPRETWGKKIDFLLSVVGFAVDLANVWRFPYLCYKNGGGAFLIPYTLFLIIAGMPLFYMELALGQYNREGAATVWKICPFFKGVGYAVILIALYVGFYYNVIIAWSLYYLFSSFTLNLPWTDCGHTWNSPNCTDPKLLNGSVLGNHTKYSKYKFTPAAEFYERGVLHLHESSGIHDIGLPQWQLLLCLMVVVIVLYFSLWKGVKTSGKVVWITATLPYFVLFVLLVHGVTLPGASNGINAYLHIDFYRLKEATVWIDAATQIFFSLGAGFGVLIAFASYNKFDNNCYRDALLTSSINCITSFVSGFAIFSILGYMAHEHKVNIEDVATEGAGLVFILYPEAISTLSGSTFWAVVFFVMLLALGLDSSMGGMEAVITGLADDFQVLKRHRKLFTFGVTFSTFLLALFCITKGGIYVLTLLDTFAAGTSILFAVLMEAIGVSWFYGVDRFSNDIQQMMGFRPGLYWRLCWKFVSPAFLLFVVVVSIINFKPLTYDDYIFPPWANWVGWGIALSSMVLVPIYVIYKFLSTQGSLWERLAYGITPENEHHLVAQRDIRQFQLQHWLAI

| inhibition at 1 µM | EC50 | SMILES |
| --- | --- | --- |
| 44.1% |  | NC1CCN(CC(c2ccc(Oc3ccccc3)cc2)C2(O)CCCCC2)CC1 (centres unmarked) [Example 310, 1-{2-(4-aminopiperidin-1-yl)-1-(4-phenoxyphenyl)ethyl]cyclohexanol dihydrochloride] |
| 84% | 200 nM | OC1(C(CN2CCC(N3CCCC3)CC2)c2cccc(C(F)(F)F)c2)CCCCC1 (centres unmarked) [Example 26, 1-{2-(4-pyrrolidin-1-ylpiperidin-1-yl)-1-[3-(trifluoromethyl)phenyl]ethyl}cyclohexanol dihydrochloride] |
| 48% |  | COc1ccc2cc(C(CN3CCC(N(C)C)CC3)C3(O)CCCCC3)ccc2c1 (centres unmarked) [Example 343, 1-[2-[4-(dimethylamino)piperidin-1-yl]-1-(6-methoxy-2-naphthyl)ethyl]cyclohexanol dihydrochloride] |
| 88% | 450 nM | CN(C)[C@@H]1CCN(CC(c2ccc(OCc3ccccc3)c(Cl)c2)C2(O)CCCCC2)C1 (stereo partly drawn) [Example 384, 1-{1-[4-(benzyloxy)-3-chlorophenyl]-2-[(3R)-3-(dimethylamino)pyrrolidin-1-yl]ethyl}cyclohexanol dihydrochloride] |
| 88% | 200 nM | NC1CCN(CC(c2cccc(Br)c2)C2(O)CCCCC2)CC1 (centres unmarked) [Example 18, 1-[2-(4-aminopiperidin-1-yl)-1-(3-bromophenyl)ethyl]cyclohexanol dihydrochloride] |
| 81% | 190 nM | COc1ccc2cc(C(CN3CCC(N4CCCCC4)CC3)C3(O)CCCCC3)ccc2c1 (centres unmarked) [Example 346, 1-[2-(1,4′-bipiperidin-1′-yl)-1-(6-methoxy-2-naphthyl)ethyl]cyclohexanol dihydrochloride] |
| 88% | 220 nM | CN(C)C1CCN(C[C@H](c2cccc(OC(F)(F)F)c2)C2(O)CCCCC2)CC1 [Example 360, 1-{(1S)-2-[4-(dimethylamino)piperidin-1-yl]-1-[3-(trifluoromethoxy)phenyl]ethyl}cyclohexanol dihydrochloride] |
| 52% |  | CNC1CCN(CC(c2ccc3cc(OC)ccc3c2)C2(O)CCCCC2)CC1 (centres unmarked) [Example 344, 1-{1-(6-methoxy-2-naphthyl)-2-[4-(methylamino)piperidin-1-yl]ethyl}cyclohexanol dihydrochloride] |
| 2% |  | COC1CCN(CC(c2ccc(OCc3ccccc3)c(Cl)c2)C2(O)CCCCC2)CC1 (centres unmarked) [Example 242, 1-[1-[4-(benzyloxy)-3-chlorophenyl]-2-(4-methoxypiperidin-1-yl)ethyl]cyclohexanol hydrochloride] |
| 39% |  | NC1CCN(CC(c2cccc3ccccc23)C2(O)CCCCC2)CC1 (centres unmarked) [Example 54, 1-[2-(4-aminopiperidin-1-yl)-1-(1-naphthyl)ethyl]cyclohexanol dihydrochloride] |
| 88% | 91 nM | CNC1CCN(CC(c2cccc(Cl)c2)C2(O)CCCCC2)CC1 (centres unmarked) [Example 17, 1-{1-(3-chlorophenyl)-2-[4-(methylamino)piperidin-1-yl]ethyl}cyclohexanol dihydrochloride] |
| 42% |  | NC1CCN(CC(c2ccc(OCc3ccc4ccccc4c3)c(Cl)c2)C2(O)CCCCC2)CC1 (centres unmarked) [Example 430, 1-{2-(4-aminopiperidin-1-yl)-1-[3-chloro-4-(2-naphthylmethoxy)phenyl]ethyl}cyclohexanol dihydrochloride] |
| 87.2% |  | N[C@@H]1CCCN(CC(c2ccc(OCc3ccccc3)c(Cl)c2)C2(O)CCCCC2)C1 (stereo partly drawn) [Example 193, 1-{2-[(3R)-3-aminopiperidin-1-yl]-1-[4-(benzyloxy)-3-chlorophenyl]ethyl}cyclohexanol dihydrochloride] |
| 49.9% |  | N[C@H]1CCCN(CC(c2cccc(OC(F)(F)F)c2)C2(O)CCCCC2)C1 (stereo partly drawn) [Example 190, 1-{2-[(3S)-3-aminopiperidin-1-yl]-1-[3-(trifluoromethoxy)phenyl]ethyl}cyclohexanol dihydrochloride] |
| 38.9% |  | N[C@H]1CCN(CC(c2cccc(OC(F)(F)F)c2)C2(O)CCCCC2)C1 (stereo partly drawn) [Example 216, 1-{2-[(3S)-3-aminopyrrolidin-1-yl]-1-[3-(trifluoromethoxy)phenyl]ethyl}cyclohexanol dihydrochloride] |
| 96% | 70 nM | OC1(C(CN2CCC(N3CCCC3)CC2)c2cccc(Br)c2)CCCCC1 (centres unmarked) [Example 7, 1-[1-(3-bromophenyl)-2-(4-pyrrolidin-1-ylpiperidin-1-yl)ethyl]cyclohexanol dihydrochloride] |
| 50% |  | CN[C@@H]1CCN(CC(c2ccc(OCc3ccccc3)cc2)C2(O)CCCCC2)C1 (stereo partly drawn) [Example 382, 1-{1-[4-(benzyloxy)phenyl]-2-[(3R)-3-(methylamino)pyrrolidin-1-yl]ethyl}cyclohexanol dihydrochloride] |
| 79% |  | COc1ccc(C(CN2CCC(N3CCCCC3)CC2)C2(O)CCCCC2)cc1Cl (centres unmarked) [Example 458, 1-[2-(1,4′-bipiperidin-1′-yl)-1-(3-chloro-4-methoxyphenyl)ethyl]cyclohexanol dihydrochloride] |
| 0% |  | C[C@@H]1CCC(O)([C@H](CN2CCC(N3CCCCC3)CC2)c2cccc(OC(F)(F)F)c2)C1 (stereo partly drawn) [Example 398, (3R)-1-{2-(1.4′-bipiperidin-1′-yl)-1-[3-(trifluoromethoxy)phenyl]ethyl}-3-methylcyclopentanol dihydrochloride] |
| 81.8% |  | NC1CCN(CC(c2cccc(Cl)c2)C2CCCCC2O)CC1 (centres unmarked) [Example 239, 2-[2-(4-aminopiperidin-1-yl)-1-(3-chlorophenyl)ethyl]cyclohexanol dihydrochloride] |
| 21.2% |  | CN(C)C1CCN(CC(c2ccc3ccccc3c2)C2(O)CCCCC2)CC1 (centres unmarked) [Example 317, 1-[2-[4-(dimethylamino)piperidin-1-yl]-1-(2-naphthyl)ethyl]cyclohexanol dihydrochloride] |
| 46% |  | N[C@@H]1CCN(CC(c2ccc3ccccc3c2)C2(O)CCCCC2)C1 (stereo partly drawn) [Example 374, 1-[2-[(3R)-3-aminopyrrolidin-1-yl]-1-(2-naphthyl)ethyl]cyclohexanol dihydrochloride] |
| 98.5% |  | CN[C@H]1CCN(CC(c2ccc(OCc3ccccc3)c(Cl)c2)C2(O)CCCCC2)C1 (stereo partly drawn) [Example 209, 1-{1-[4-(benzyloxy)-3-chlorophenyl]-2-[(3S)-3-(methylamino)pyrrolidin-1-yl]ethyl}cyclohexanol dihydrochloride] |
| 30.2% |  | CN[C@H]1CCN(CC(c2cccc(OC(F)(F)F)c2)C2(O)CCCCC2)C1 (stereo partly drawn) [Example 215, 1-{2-[(3S)-3-(methylamino)pyrrolidin-1-yl]-1-[3-(trifluoromethoxy)phenyl]ethyl}cyclohexanol dihydrochloride] |
| 42% |  | CN[C@@H]1CCN(CC(c2cccc(OC(F)(F)F)c2)C2(O)CCCCC2)C1 (stereo partly drawn) [Example 218, 1-{2-[(3R)-3-(methylamino)pyrrolidin-1-yl]-1-[3-(trifluoromethoxy)phenyl]ethyl}cyclohexanol dihydrochloride] |
| 96% | 180 nM | CN(C)C1CCN(CC(c2ccc(OCc3ccccc3)c(Cl)c2)C2(O)CCCCC2)CC1 (centres unmarked) [Example 429, 1-{1-[4-(benzyloxy)-3-chlorophenyl]-2-[4-(dimethylamino)piperidin-1-yl]ethyl}cyclohexanol] |
| 17% |  | OC1(C(CN2CCC(N3CCCCC3)CC2)c2ccc(OCCc3ccccc3)cc2)CCCCC1 (centres unmarked) [Example 461, 1-{2-(1,4′-bipiperidin-1′-yl)-1-[4-(2-phenylethoxy)phenyl]ethyl}cyclohexanol dihydrochloride] |
